Source: publication PMC9995905, “Characteristics of antimicrobial peptide OaBac5mini and its bactericidal mechanism against Escherichia coli” (Frontiers in Veterinary Science, 2023)
Entries after “also recorded” stand apart in the source; their conditions may differ. Where no end group is shown, it is not given here.

What was measured:
E. coli ATCC 25922 [1] = experiment: microbe, parasite or virus in culture; settings: ATCC 25922
Protocol: (§1) MICs of OaBac5mini, amoxicillin, kanamycin, florfenicol and tetracycline were determined using the two-fold broth microdilution method according to the Clinical and Laboratory Standards Institute (CLSI) guidance ([21]). MIC values of the tested antibacterial agents were determined on three independent occasions. Escherichia coli ATCC 25922 was used as the quality control in all the susceptibility tests.

S. aureus ATCC 25923 = experiment: microbe, parasite or virus in culture; settings: ATCC 25923
Protocol: as §1

E. coli ATCC 25922 ΔsbmA = settings: two-fold broth microdilution, CLSI; three independent occasions; sbmA deletion mutant
Protocol: The method described by Datsenko and Wanner was used for chromosomal gene deletion ([20]). […] The PCR fragment (1,567 bp) was purified, digested with DpnI, repurified and transferred into E. coli ATCC 25922 by electroporation, in which the Red recombinase expression plasmid pKD46 was previously transformed and induced by L-arabinose. Transformants were selected on Luria-Bertani (LB) agar containing 50 μg/ml of kanamycin at 37°C. The inserted sequence was amplified from the kanamycin-resistant strains by using the primers SBMF: 5′-[…]-3′ and SBMR: 5′-[…]-3′ which is located outside of inactivated gene. The length of the PCR product of sbmA using the primers set SBMF and SBMR in E. coli ATCC 25922 is 1,404 bp. When sbmA is successfully inactivated, the PCR product (2,198 bp) was amplified and sequenced for the verification of the gene deletion.
as §1

E. coli ATCC 25922 [2] = experiment: Time-kill curve; format: cell-based, Escherichia coli; settings: MH broth, 37°C, 5×10^5 CFU/ml, triplicate
Protocol: To investigate the time-kill effect of OaBac5mini against E. coli ATCC 25922, bacteria (5×10^5 CFU/ml) were cultured in fresh Mueller-Hinton (MH) broth (Yashi Organisms, China) with different concentrations of OaBac5mini (0, 50, 100, and 200 μg/ml) at 37°C with shaking at the speed of 220 rpm. Equal amounts (100 μl) of E. coli ATCC 25922 from each sample were withdrawn at 0, 2, 4, 6, 8, 10, 12, and 24 h, diluted with Luria-Bertani (LB) broth (Solarbio, China) and plated onto LB agar plates. Plates were placed at 37°C for 18 h for the CFU counts.

IPEC-J2 cells = format: cell-based, porcine
Protocol: The cells were maintained in CO2 incubator (Galaxy R, RS Biotech, Scotland) with 5% CO2 at 37°C. Real time cellular analysis (RTCA) was used to evaluate the proliferation and viability of IPEC-J2 cells. […] Real time cellular analysis was monitored using xCELLigence RTCA DP system (xCELLigence, ACEA biosciences, USA) for 100 h at 15 min intervals. The cell index was normalized by RTCA software 2.0 (xCELLigence, ACEA biosciences, USA).

Gram-negative bacteria = settings: cited from earlier work
Source text: (§2) Antimicrobial peptides (AMPs) are small molecular peptides in living organisms and serve as natural barriers against the invasion of pathogenic microorganisms ([5]). They are often referred to as cationic host defense peptides (HDPs) or cationic antimicrobial peptides (CAMPs) ([6]). Cathelicidins are one of the best characterized AMP families. Each cathelicidin includes an N-terminal signal domain, a cathelin-like domain, and an antimicrobial C-terminal domain ([7]). Among them, the proline-rich antibacterial peptides (PrAMPs) have been attracting the close attention of researchers due to thei ...

[3] = system: Gram-positive bacteria and C. albicans; settings: cited from earlier work
Source text: as §2

Sequence: RFRPPIRRPPIRPPFRPPFRPPVR [OaBac5mini]
- MIC against E. coli ATCC 25922 (E. coli ATCC 25922 [1]): 25 µg/mL
- MIC against S. aureus ATCC 25923 (S. aureus ATCC 25923): >250 µg/mL
- MIC against E. coli ATCC 25922 ΔsbmA (E. coli ATCC 25922 ΔsbmA): 100 µg/mL
- Time-kill effect at 50 μg/ml (2 × MIC) (E. coli ATCC 25922 [2]; 50 μg/ml, 24 h): the number of bacteria remained stable in the first co-incubation for 8h before it increased
- Time-kill effect at 100 μg/ml (E. coli ATCC 25922 [2]; 100 μg/ml, 24 h): decrease after co-incubation for 12 h and increase in further co-incubation for 12 h
- Time-kill effect at 200 μg/ml (8 × MIC) (E. coli ATCC 25922 [2]; 200 μg/ml, co-incubation for 12 h): could effectively kill; also recorded: effectively killed
- Cell indexes of IPEC-J2 cells at 400 μg/ml compared to the control group (IPEC-J2 cells): didn't change significantly
- Cell indexes of treated IPEC-J2 cells compared with the control group (IPEC-J2 cells): significant increase
- MICs against Gram-negative bacteria (Gram-negative bacteria): 0.125 to 8 µg/mL
- MICs against Gram-positive bacteria and C. albicans [3]: 16 to 64 µg/mL
